Test results: paper PMC11943303 (International Journal of Molecular Sciences, 2025)
“Also recorded” adds a separate entry of the source. Where two headings read alike, the source gives them in different places.

Assays:
[1] = biological target: T1, transient outward potassium current, ITo (Rattus norvegicus, UniProt Q62897+Q63881); assay: ITo current block (dose-response, I/V), whole-cell patch clamp in rat cardiomyocytes; assay type: cell-based, rat (Sprague Dawley); conditions: 15 min pre-incubation, n = 32, 6 animals; for IC50: Hill equation fit to Gmax,[X]/Gmax,[ctrl], partial block
T1 construct: INa and ITo were recorded from freshly isolated left ventricular cardiomyocytes; endogenous in cells; host or cells: freshly isolated left ventricular cardiomyocytes of adult Sprague Dawley rats
T1 sequence (Q63881 1-630): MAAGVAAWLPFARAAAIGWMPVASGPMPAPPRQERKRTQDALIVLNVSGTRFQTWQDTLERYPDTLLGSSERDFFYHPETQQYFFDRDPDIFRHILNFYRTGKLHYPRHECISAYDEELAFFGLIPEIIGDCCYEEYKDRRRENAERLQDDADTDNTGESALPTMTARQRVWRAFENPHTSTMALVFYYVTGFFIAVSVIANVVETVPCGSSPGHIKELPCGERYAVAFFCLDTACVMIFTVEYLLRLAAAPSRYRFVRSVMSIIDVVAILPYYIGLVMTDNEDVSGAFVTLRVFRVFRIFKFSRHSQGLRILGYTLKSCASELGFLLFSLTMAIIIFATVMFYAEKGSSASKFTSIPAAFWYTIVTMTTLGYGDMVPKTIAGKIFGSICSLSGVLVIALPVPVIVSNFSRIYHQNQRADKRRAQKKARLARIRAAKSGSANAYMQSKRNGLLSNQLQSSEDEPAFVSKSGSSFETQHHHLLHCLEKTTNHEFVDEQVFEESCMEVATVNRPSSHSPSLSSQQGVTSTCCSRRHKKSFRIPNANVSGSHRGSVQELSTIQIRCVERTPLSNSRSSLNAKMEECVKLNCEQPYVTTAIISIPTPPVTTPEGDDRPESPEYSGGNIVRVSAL
T1 sequence (Q62897 1-655): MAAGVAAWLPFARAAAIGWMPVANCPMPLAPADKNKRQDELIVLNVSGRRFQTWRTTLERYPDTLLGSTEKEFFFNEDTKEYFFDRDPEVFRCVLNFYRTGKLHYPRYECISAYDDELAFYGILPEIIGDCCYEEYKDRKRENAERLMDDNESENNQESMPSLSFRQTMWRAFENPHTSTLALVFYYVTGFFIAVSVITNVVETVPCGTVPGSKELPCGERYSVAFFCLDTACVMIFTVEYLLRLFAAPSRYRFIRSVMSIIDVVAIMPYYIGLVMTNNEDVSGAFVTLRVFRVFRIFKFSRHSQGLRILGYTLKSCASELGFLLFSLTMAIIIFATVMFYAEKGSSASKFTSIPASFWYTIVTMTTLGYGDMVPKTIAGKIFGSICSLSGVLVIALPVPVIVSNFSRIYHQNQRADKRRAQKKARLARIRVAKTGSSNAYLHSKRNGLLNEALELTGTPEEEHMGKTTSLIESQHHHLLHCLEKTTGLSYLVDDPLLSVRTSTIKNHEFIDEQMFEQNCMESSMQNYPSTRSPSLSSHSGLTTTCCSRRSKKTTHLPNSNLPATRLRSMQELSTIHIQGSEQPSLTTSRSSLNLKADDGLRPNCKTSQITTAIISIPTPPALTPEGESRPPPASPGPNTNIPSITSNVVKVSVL
T1 sequence (Q9JM59 1-270 partner): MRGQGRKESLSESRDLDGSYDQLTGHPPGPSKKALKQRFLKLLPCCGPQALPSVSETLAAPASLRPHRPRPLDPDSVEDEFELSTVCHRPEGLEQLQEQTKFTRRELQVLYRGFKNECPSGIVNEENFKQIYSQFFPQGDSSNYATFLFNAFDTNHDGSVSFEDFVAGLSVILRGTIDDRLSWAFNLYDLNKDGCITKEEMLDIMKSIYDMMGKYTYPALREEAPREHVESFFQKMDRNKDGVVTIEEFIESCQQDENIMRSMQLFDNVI
Procedure: Ventricular cardiomyocytes from adult rats were isolated by enzymatic dissociation as previously reported. Adult Sprague Dawley rats (Charles River, Montreal, QC, Canada) were heparinized (5000 U) and sedated with 2% Isoflurane in an oxygen chamber (2 L/min). Hearts were excised by thoracotomy and cannulated via the aorta to be mounted on a Langendorff perfusion apparatus. Hearts were initially perfused with standard calcium-free Tyrode solution [21] at 37 °C (3–5 min), at a rate of 13 mL/min, and pre-digested by perfusion with low-calcium (150 μM) Tyrode solution supplemented with 220–280 U/mg of low-trypsin collagenase type 2 (Worthington Biochemical, Toronto, ON, Canada) for less than 15 min.
Once removed from the Langendorf perfusion apparatus, the heart septum and left ventricle were cut and gently shaken for 3 min in a 50/50 solution (digestion sln/low-calcium Tyrode solution) to disperse the isolated cells. The supernatant of the cell solution was filtered, and cells were left to settle in a 15 mL conical tube. The procedure was repeated 4 times, and cells were divided into fractions. Cardiomyocyte pellets from each fraction were washed with low-calcium Tyrode solution. For the final washing, supernatant solution was removed and replaced by standard Kraftbrühe (KB) solution [21], and the cells were kept at 4 °C.
INa and ITo were recorded from freshly isolated left ventricular cardiomyocytes and TSA201 cells after 48 h of transfection at room temperature. Electrical currents were recorded using the patch-clamp technique in whole-cell configuration via an Axopatch 200B amplifier (Molecular Devices, Sunnyvale, CA, USA). Cardiomyocytes and TSA201 cells were pre-incubated with 2Nal during 15 min and continuously perfused during recordings. In preliminary experiments, we measured the onset of the block by 2Nal by initially superfusing with control solution and subsequently washing in 2Nal solution. Recordings were acquired at 10 kHz and filtered to 5 kHz (lowpass Bessel filter). Whole-cell capacitance and series resistance compensation (85%) were optimized to reduce the capacitive artifact and minimize voltage error. Analysis of the recordings was performed using the Clampex 10.7 analysis software.
Extracellular solution for ITo recordings in cardiomyocytes contained (in mM) 126 NaCl, 5.4 KCl, 1 MgCl2, 20 HEPES, 2 CaCl2, and 11 glucose. The pH and osmolarity were adjusted to 7.4 and 295–300 mOsm, respectively, using NaOH and sucrose. Pipette solution contained (in mM) 90 K-aspartate, 30 KCl, 1 MgCl2, 20 HEPES, 5 NaCl, 5 MgATP, 5.5 Glucose. The pH was adjusted with KOH to 7.3 and osmolarity to 295–300 mOsm. For ITo recordings in TSA201 cells, extracellular solution contained 130 NaCl, 5 KCl, 1 MgCl2, 2.8 Na-acetate, 10 HEPES, 1.8 CaCl2, and 10 glucose. […]

[2] = tested on: transient outward potassium current, ITo, and its sustained component, IKsus; design: method as in PMID 18424641, PMID 12215493; conditions: cited from earlier work
artery = conditions: by enhancing nitric oxide (NO) production in the endothelium; cited from earlier work
Text: (§1) Apelin is an endogenous peptide recognized for its therapeutic potential in hypertension and heart failure, as well as for its modulation of the endocrine system. This adipokine is primarily synthesized in adipose tissue but is also produced in the gastrointestinal tract, brain, kidney, lung, mammary glands, and cardiovascular system.

heart = conditions: cited from earlier work
Text: as §1

[3] = tested on: cardiac sodium current (INa); conditions: cited from earlier work
Text: At this stage, we cannot distinguish how specific affinities of Kv4.2 or Kv4.3 for 2Nal modulate the overall effect on ITo amplitude in native cardiomyocytes. However, our observation of apparent EC50 differing between the peak and sustained co ...

[4] = tested on: large conductance calcium-activated K^+ channels; conditions: cited from earlier work
[5] = tested on: ultra-rapid potassium current; design: method as in PMID 23106642; conditions: rabbit left-atrium cardiomyocytes; cited from earlier work
[6] = tested on: rabbit left-atrium cardiomyocytes; design: method as in PMID 23106642; conditions: cited from earlier work
[7] = design: method as in PMID 10777510, PMID 18272843; conditions: isoforms identified in vivo; cited from earlier work

## CSCC[C@H](NC(=O)[C@@H]1CCCN1C(=O)CNC(=O)[C@H](CCCCN)NC(=O)[C@H](Cc1c[nH]cn1)NC(=O)[C@H](CO)NC(=O)[C@H](CC(C)C)NC(=O)[C@H](CCCNC(=N)N)NC(=O)[C@@H]1CCCN1C(=O)[C@H](CCCNC(=N)N)NC(=O)[C@@H](N)CCC(N)=O)C(=O)N1CCC[C@H]1C(=O)N[C@@H](Cc1ccc2ccccc2c1)C(=O)O [2Nal]
[1]; peak component, Gmax ratio, holding −80 mV, 500 ms steps, mean ± SEM
  Maximum block of ITo,peak: 34.2 ± 5.6%
[1]; peak component, read-out: IC50 (half-maximal blocking concentration) for ITo,peak
  IC50: 300 ± 100 pM
[1]; sustained component, Gmax ratio, holding −80 mV, 500 ms steps, mean ± SEM
  Maximum block of ITo,sus: 47 ± 9.2%
[1]; sustained component, read-out: IC50 (half-maximal blocking concentration) for ITo,sus
  IC50: 24 ± 10 pM

## apelin
[2]
  effect on ITo and IKsus: no effects
artery
  vasodilation: triggers arterial vasodilation
heart
  cardiac inotropic effect: strong positive cardiac inotropic effects
[3]
  effect on cardiac sodium current INa: increase in INa; also recorded: modulate cardiac sodium current (INa) gating and enhance its amplitude
[4]
  effect on large conductance calcium-activated K+ channels: inhibiting large conductance calcium-activated K^+ channels
[5]
  effect on ultra-rapid potassium current: blocks the ultra-rapid potassium current
[6]
  effect on action potential duration: reduces action potential duration (APD)

## apelin-36: predominant apelin isoform identified in vivo (LVQPRGSRNGPGPWQGGRRKFRRQRPRLSHKGPMPF; Apelin-36; UniProt Q9ULZ1 42-77, looked up)
[7]
  susceptibility to proteolysis: highly susceptible to proteolysis
